The subject of experiment [1] is CD11b+ myeloid cells. In words: Adoptive transfer: arrest of pretreated CD11b+ myeloid cells in LLC tumours. Format: in vivo. As to conditions: adoptively transferred into LLC tumour-bearing mice. The method, then:
Alternatively, 5×10^6 CFSE labelled CD11b+ cells from C57BL/6, α4Y991A, and PI3-kinase γ−/− mice were injected intravenously into mice bearing subcutaneous (5×10^5) d14 LLC tumours. In other studies, CD11b+ cells from WT mice were treated for 1 h with 1 μM PI3-kinase α inhibitor (PI3K75), PI3-kinase β inhibitor (TGX221), PI3-kinase γ inhibitor (TG100-115) and an inert control or with 10 μM PLC inhibitor (U73122), geranylgeranyltransferase inhibitor (GGT2147) or farnesyltransferase inhibitor (FTI-277) and then injected intravenously into mice bearing subcutaneous (5×10^5) d14 LLC tumours.
In other studies, K, N and H Ras, Rap1, PI3Kα, PI3Kβ, PI3Kγ, PI3Kδ, integrin α4 and integrin αM were knocked down by siRNA transfection of CD11b+ cells as described above. 48 h later, cells were labeled with CFSE and injected into mice with d14 LLC tumours (1×10^6 cells). Fluorescent cells accumulating in tumours and spleens were quantified 2 h and 24 h later by excising tissues, preparing single cell suspensions and performing FACs analysis at 488 nm. No differences were observed between untreated and non-silencing siRNA treated cells.

Experiment [2] relates to CD11b+ myeloid cell adhesion to VCAM-1. The experiment is described as follows: Chemoattractant-stimulated CD11b+ myeloid cell adhesion to VCAM-1 / endothelial cells (Example 9 adhesion assay). Format: cell-based, mouse. The procedure: 1×10^5 calcein-AM labelled human CD11b+ cells isolated from buffy coats from the San Diego Blood Bank or murine CD11b+ cells isolated from naïve (non-tumour bearing) or tumour-bearing mice were incubated on HUVEC monolayers or on plastic plates coated with 5 μg/ml recombinant soluble VCAM-1 or ICAM-1 (R&D Systems) for 30 minutes at 37° C. with humidity in the presence of LLC Tumour Conditioned Medium (TCM) or DMEM containing 200 ng/ml SDF1α, IL1β, IL6, TNFα or VEGF-A (R&D Systems). (SDF-1α and IL-1β were initially titrated to determine the minimum dose required to achieve near maximal stimulation of adhesion). TCM was prepared by incubating LLC cells in serum-free media for 18 h and filtering through 0.22 μm filters. After washing three times with warmed medium, adherent cells were quantified using a plate fluorimeter (GeniosPro, TECAN).
In some adhesion assays, cells were also incubated in 25 μg/ml function-blocking anti-integrin α4β1 (rat anti-murine, PS2 or mouse anti-human, HP2/1, gifts from Biogen-Idec), rat-anti-αM (anti-CD11b, M1/70) and isotype control antibodies (rat IgG2κ or mouse IgG1) or with 0.1 nM-10 μM doses of the small molecule inhibitor of integrin α4, ELN476063 (IC50=10 nM), a gift from Elan^14.
Additionally, labelled cells were incubated with HUVEC and rsVCAM coated plates in the presence of […] or SDF-1α and 1-10 μM inhibitors: pan-PI3 kinase inhibitors ([…], wortmannin), PI3-kinase α inhibitors (PI3K75, PIK2alpha, PI103), PI3-kinase β inhibitor (TGX221), PI3-kinase γ inhibitors (TG100-115, AS605240, AS604850), inert control, PLC inhibitor (U73122), geranylgeranyltransferase (Rap1-selective) inhibitors (GGTI-2147 and GGTI-298) or farnesyltransferase (Ras-selective) inhibitor (FTI-277), Akt inhibitors (Inhibitor X and peptide 18), mTOR inhibitor (rapamycin), ROCK inhibitor (Y27632), MEK inhibitor (PD98059), p38 inhibitor (SB202190), tyrosine kinase inhibitor (genestein) and PKA inhibitors (H89, KT5720). LY294002, wortmannin, genestein, U73122, GGTI-2147, GGTI-298, FTI-277, Y27632, PD98059, SB202190, H89 and KT5720 were from Calbiochem. PIK2alpha, PI103, AS605240, AS604850 and TGX221 were from Echelon. TG100-115 was prepared as described^25-26. To titrate the effect of various signalling protein inhibitors on myeloid cell adhesion stimulated by IL-1β or SDF-1α, cells were incubated in 1 nm to 100 μM PI3-kinase inhibitors TG00020 (a pan-PI3-kinase inhibitor), PI3-kinase α inhibitor (PI3Kalpha2) PI3-kinase β inhibitor (TGX221), PI3-kinase γ inhibitors (TG100-115, AS605240), an inert chemically matched control, farnesyltrasnferase inhibitors and geranylgeranyltransferase inhibitors. IC50s for GGTI and FTI were 1 μM. […] Adherent GFP+ cells were automatically quantified using MetaMorph software (Molecular Devices Software).

The subject of experiment [3] is LLC tumours. In words: Subcutaneous LLC tumour growth, inflammation and angiogenesis in treated mice. Format: in vivo, C57BL/6 mice. As to conditions: daily dosing. The method, then: LLC cells were obtained from the American Type Culture Collection (ATCC) and Panc02 pancreatic ductal carcinoma cells were obtained from the NCI DCTDC Tumour Repository. The abdominal cavities of immunocompetent C57Bl6 mice and integrin α4Y991A knockin mice^30 were opened and the tails of the pancreas were exteriorized. One million Panc02 cells were injected into the pancreatic tail, the pancreas was placed back into the abdominal cavity and the incision was closed. Tumours were excised after 30 days. 5×10^5 LLC cells were injected subcutaneously or by intravenous tail vein injection into C57Bl6 or integrin α4Y991A mice. Tumours were excised at 7, 14 or 21 days, cryopreserved in O.C.T., lysed for RNA purification or collagenase-digested for flow cytometric analysis of CD11b and Gr1 expression. […] Tumours were harvested, weighed and further analyzed on day 8. […]
PI3-kinase γ inhibitor studies: C57BL/6 mice were subcutaneously implanted on d1 with 5×10^5 LLC or by intradermal injection with 5×10^5 B16 melanoma cells. […] Tumour volumes, weights and blood vessel densities, as well as myeloid cell densities were measured. […] Tumours were excised, weighed and analyzed after 3 weeks. […] Mice were sacrificed at 9 weeks of age and tumours were analyzed.

Each structure is given as a SMILES string.

Consider `COC(=O)[C@H](CCSC)NC(=O)c1ccc(NC[C@@H](N)CS)cc1-c1ccccc1` [FTI], for which the “myeloid cell arrest in tumours in vivo” value in experiment [1] was “suppressed myeloid cell arrest in tumours in vivo”. For the same compound, the “adhesion, ligand binding and integrin conformational changes” value in experiment [2] (chemokine-stimulated myeloid cells) was “blocked adhesion, ligand binding and integrin conformational changes”. Also, the IC50 in experiment [2] (stimulated by IL-1β or SDF-1α, read-out: IC50, myeloid cell adhesion) worked out at 1000 nM.
Regarding `O=C1NC(=O)/C(=C\c2ccc3nccnc3c2)S1` [AS605240], in experiment [3], the LLC tumour growth entry is “suppressed tumour growth at similar doses”.

One may read the IC50 as the concentration at which inhibition is half-maximal.

The values above are taken from patent US20100278837A1, “Compositions And Methods For Reducing Cancer And Inflammation” (The Regents of the University of California, priority 2009, published 2010).
